Where a name gives a salt, the structure may show the parent alone.
Assays:
[1] = molecular target: T1, cycloGMP-dependent kinase (Bos taurus, UniProt P00516); assay: G-kinase: inhibition of cyclic GMP-dependent kinase, phosphorus-32 incorporation into histone; type: biochemical, bovine; conditions: pH 7.4; 10 μM ATP; 10 μM cGMP; 2.5 nM G-kinase
T1 construct: The enzyme was purified from bovine lung; from tissue; host or cells: bovine lung
T1 sequence (P00516 1-671): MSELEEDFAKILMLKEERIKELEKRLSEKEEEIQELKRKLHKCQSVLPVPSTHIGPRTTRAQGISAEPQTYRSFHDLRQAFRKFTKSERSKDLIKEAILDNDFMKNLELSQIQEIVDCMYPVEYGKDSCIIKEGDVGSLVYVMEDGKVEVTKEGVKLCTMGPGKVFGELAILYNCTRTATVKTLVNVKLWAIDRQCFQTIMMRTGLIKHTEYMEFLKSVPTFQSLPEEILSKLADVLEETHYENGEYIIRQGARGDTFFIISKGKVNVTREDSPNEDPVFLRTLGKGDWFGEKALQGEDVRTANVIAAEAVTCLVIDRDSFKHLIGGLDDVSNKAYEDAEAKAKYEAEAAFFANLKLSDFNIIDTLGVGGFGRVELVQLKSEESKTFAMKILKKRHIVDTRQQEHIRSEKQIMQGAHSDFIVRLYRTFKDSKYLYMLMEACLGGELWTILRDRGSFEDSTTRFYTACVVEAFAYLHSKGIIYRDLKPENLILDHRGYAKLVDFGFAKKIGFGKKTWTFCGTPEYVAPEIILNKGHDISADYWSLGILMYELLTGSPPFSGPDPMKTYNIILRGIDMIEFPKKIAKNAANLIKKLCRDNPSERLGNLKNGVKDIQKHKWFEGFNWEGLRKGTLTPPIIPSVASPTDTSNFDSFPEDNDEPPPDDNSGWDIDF
Procedure: The enzyme was purified from bovine lung and its activity determined via the incorporation of phosphorus 32-labelled phosphate into histone. In the test batch are contained the following components: 20 mM Tris-HCl, pH 7.4, 5 mM MgCl2, 1 mM DTT, 10 μM ATP, 10 μM cGMP, 40 μg BSA, 2% glycerol, as well as 10 μg histone II-A. The starting of the reaction takes place by addition of 2.5 nM G-kinase. Otherwise, the carrying out of the test takes place as in the case of C-kinase.

[2] = molecular target: T2, cycloAMP-dependent kinase (Homo sapiens, UniProt P17612); assay: A-kinase: inhibition of cyclic AMP-dependent kinase (commercially available catalytic subunit), phosphorus-32 incorporation into histone; type: biochemical; conditions: pH 7.5; 40 μM ATP; histone-H-2B; read-out: Inhibition of cAMP-kinase, IC50-values
T2 construct: purchased
Procedure: The measurement of the activity takes place with the commercially available catalytic subunit of the enzyme. The incorporation of phosphorus-32 labelled phosphate into histone is thereby measured. The reaction batch of 200 μL contains the following components: 50 mM PIPES-NaOH, pH 7.5, 10 mM MgCl2, 1 mM DTT, 40 μM ATP, as well as 50 μg histone-H-2B. The carrying out of the test takes place as in the case of C-kinase.

[3] = molecular target: T3, myosine light chain kinase (Gallus gallus, UniProt P11799); assay: MLC-kinase: inhibition of myosine light chain kinase, phosphorus-32 incorporation into MLC; type: biochemical, chicken; conditions: pH 7.2; 250 μM ATP; 25 μM MLC; about 1 nM MLC kinase
T3 construct: Not only the enzyme but also the substrate (MLC) are purified from chicken stomach; from tissue; host or cells: chicken stomach
Procedure: Not only the enzyme but also the substrate (MLC) are purified from chicken stomach. The activity measurement also takes place via the incorporation of phosphorus-32 labelled phosphate. The reaction batch of 200 μL contains the following components: 50 mM MOPS-NaOH, pH 7.2, 5 mM MgCl2, 100 μM CaCl2, 100 nM calmodulin, 1 mM DTT, 250 μM ATP, as well as 25 μM MLC. The reaction is started by addition of about 1 nM MLC kinase; otherwise, the carrying out of the test takes place as in the case of C-kinase.

protein kinase C = assay: C-kinase: inhibition of protein kinase C, incorporation of phosphorus-32 labelled phosphate in histone; type: biochemical, rat brain or chicken stomach smooth muscle; conditions: pH 7.5; 10 μM ATP; 5 nM PKC; 5 min at 30° C.
Procedure: The enzyme is purified from rat brain or smooth muscle (chicken stomach). Its activity is determined via the incorporation of phosphorus-32 labelled phosphate in histone. The reaction batch of 200 μL contains the following components: 50 mM HEPES-NaOH, pH 7.5, 5 mM MgCl2, 1 mM DTT, 4 μM free Ca^2+, 10 μM ATP, 1 μg phosphatidylserine, 0.2 μg 1,2-diolein, as well as 40 μg histone H-1. The batch is preincubated for 4 minutes at 30° C. and the reaction then started by addition of 5 nM PKC. After 5 minutes incubation at 30° C. the reaction is stopped with 10% TCA and the samples then filtered off. The phosphate incorporation is determined by means of Cerenkov counting in a scintillation counter.

T3 sequence (P11799 935-1906 limits assumed): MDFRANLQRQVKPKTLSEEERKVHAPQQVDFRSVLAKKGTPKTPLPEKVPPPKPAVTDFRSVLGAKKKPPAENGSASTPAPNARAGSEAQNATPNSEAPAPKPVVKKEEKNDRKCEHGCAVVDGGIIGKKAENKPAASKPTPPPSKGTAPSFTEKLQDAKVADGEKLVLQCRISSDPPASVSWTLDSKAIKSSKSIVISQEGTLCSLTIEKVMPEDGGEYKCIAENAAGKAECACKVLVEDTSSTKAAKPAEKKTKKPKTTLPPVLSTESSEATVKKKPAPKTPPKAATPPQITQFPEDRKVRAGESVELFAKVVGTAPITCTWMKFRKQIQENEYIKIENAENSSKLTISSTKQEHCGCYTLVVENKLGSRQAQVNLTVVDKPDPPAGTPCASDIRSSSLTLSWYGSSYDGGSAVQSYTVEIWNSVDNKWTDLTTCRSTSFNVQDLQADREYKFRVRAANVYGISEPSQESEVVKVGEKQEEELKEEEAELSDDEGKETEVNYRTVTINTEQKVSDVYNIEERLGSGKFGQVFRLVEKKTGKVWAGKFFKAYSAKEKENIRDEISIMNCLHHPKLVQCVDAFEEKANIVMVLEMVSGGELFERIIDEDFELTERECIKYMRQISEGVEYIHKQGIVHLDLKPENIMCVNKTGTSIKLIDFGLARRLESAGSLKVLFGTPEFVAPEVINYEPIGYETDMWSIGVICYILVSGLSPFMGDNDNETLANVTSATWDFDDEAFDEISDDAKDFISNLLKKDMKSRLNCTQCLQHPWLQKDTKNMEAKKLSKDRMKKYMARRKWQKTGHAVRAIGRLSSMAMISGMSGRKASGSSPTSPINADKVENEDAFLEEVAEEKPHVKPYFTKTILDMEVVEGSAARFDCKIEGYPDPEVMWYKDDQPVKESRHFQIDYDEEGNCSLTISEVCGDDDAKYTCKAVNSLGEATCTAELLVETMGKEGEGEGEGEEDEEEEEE

Row | IC50 [1] [µM] | IC50 [2] [µM] | IC50 [3] [µM] | IC50 (protein kinase C) [µM] | Compound
1 | > 100 | > 100 | > 100 | 5 | CCCCCCCCCCCCCCCCCCOCC(CN(C)C)OC(C)=O (racemic) [A, (±)1-dimethylamino-3-octadecyloxy-2-propyl acetate hydrochloride]
2 | > 100 | > 100 | > 100 | 2.5 | CCCCCCCCCCCCCCCCCCOCC(O)CN(C)C(CO)C(=O)O (stereo not drawn) [Example 1, 2-[N-Methyl-N-(3-octadecyloxy-2-hydroxypropyl)]-amino-3-hydroxypropionic acid hydrochloride]

Row | Compound | IC50 [1] [µM] | IC50 [2] [µM] | IC50 [3] [µM] | IC50 (protein kinase C) [µM]
3 | CCCCCCCCCCOCC(CN1CCC(CN)(c2ccccc2)CC1)OCCCCCCCCCC (stereo not drawn) [B] | 28 | 29 | 5.1 | 7

Reference: patent publication US5401875A, “2-aminocarboxylic acids and their derivatives, processes for their preparation and their use as medicaments” (Godecke Aktiengesellschaft, priority 1988, dated 1995)
